Here are results for 39 compounds from US20240174665A1, “CDK2 INHIBITORS AND USES THEREOF” (Kymera Therapeutics, Inc., priority 2022, published 2024).

The IC50 is the concentration that inhibits the measured activity by half.

This experiment deals with T1, CDK2/CycE1 (Homo sapiens, UniProt P24941).
T1 construct: 1.5 nM CDK2/CycE1, amino acids 1-298/1-410, Carna BS; purchased Carna BS (Carna Biosciences) 04-165, lot 20CBS-0731B
The experiment can be described thus: CDK2 inhibition assay, PhosphoSens CSox-based Kinetic Assay Format (AssayQuant). The class given is biochemical. To be noted: 1.5 nM CDK2/CycE1, 1.5× Km ATP, 30 minute preincubation at 30° C., reaction 240 minutes; read-out: IC50 CDK2-CycE1 (AssayQuant) Using PhosphoSens ® CSox-based Kinetic Assay Format. As for the experimental part:
Inhibition of CDK2 was measured using PhosphoSens® CSox-based Kinetic Assay Format (AssayQuant Technologies) as follows:
• 2.5 μl 10× Inhibitor in 10% DMSO (3-fold titration in 10% DMSO for a final DMSO concentration of 1%) • […] Reaction Mix with ATP, DTT, & CSx Substrate • 30 minute preincubation at 30° C. • […] Enzyme dilution buffer (EDB) (1×) or Kinase (5× in EDB); Enzyme Dilution Buffer (EDB): 20 mM HEPES, pH 7.5, 0.01% Brij-35, 0.1 mM EGTA, 5% Glycerol, 1.0 mg/ml BSA, 1.0 mM DTT • 25 μL Final reaction volume • Reaction was run at 30° C. for 240 minutes
• 54 mM HEPES, pH 7.5 • 1.5× Km ATP (see ATP TAB) • 1.2 mM DTT • 0.012% Brij-35 • 0.52 mM EGTA • 1% glycerol • 0.2 mg/ml BSA • 10 mM MgCl2 • 15 μM AQT0297
Reactions were run in Corning, low volume 384-well, white flat round bottom polystyrene NBS microplates (Cat. #3824) after sealing using optically-clear adhesive film (TopSealA-Plus plate seal, PerkinElmer [Cat. #6050185])
The letter codes for CDK2 inhibition include: A (<100 nM), B (≥100-500 nM), C (>500-1000 nM), and D (>1000 nM).
Take `CCS(=O)(=O)c1ccc(Nc2ncc(C(F)(F)F)c(-c3cnn(C)c3)n2)c(C)c1` [I-27, N-(4-ethylsulfonyl-2-methyl-phenyl)-4-(1-methylpyrazol-4-yl)-5-(trifluoromethyl) pyrimidin-2-amine]: the 50% inhibitory concentration (IC50) was less than 0.1 µM.
With `CCS(=O)(=O)c1ccc(Nc2nccc(-c3cnc(C)n3C(C)C)n2)c(C)c1` [I-29, N-(4-ethylsulfonyl-2-methyl-phenyl)-4-(3-isopropyl-2-methyl-imidazol-4-yl) pyrimidin-2-amine], the IC50 lay in the range of 0.1 to 0.5 µM.
Consider `CCS(=O)(=O)c1ccc(Nc2ncc3cc(Cl)c(=O)n(C(C)C)c3n2)c(C)c1` [I-30], for which the IC50 is 0.1 to 0.5 µM.
For the compound `CCS(=O)(=O)c1ccc(Nc2ncc3cc(C(F)F)c(=O)n(C(C)C)c3n2)c(C)c1` [I-31], the IC50 was greater than 1 µM.
For the compound `CCS(=O)(=O)c1ccc(Nc2ncc3c(n2)N(C2CCCC2)C(=O)C32CC2)c(C)c1` [I-35], the IC50 was less than 0.1 µM.
As for `CCS(=O)(=O)c1ccc(Nc2ncc(C(F)(F)F)c([C@H]3CC[C@@](C)(O)CC3)n2)c(C)c1` [I-40], the figure is greater than 1 µM.
As for `Cc1cc(S(=O)(=O)C2CCC3(CC2)CN(C)C3)ccc1Nc1ncc2cc(Cl)c(=O)n(C3CCCC3)c2n1` [I-41], the figure is less than 0.1 µM.
As to `CCS(=O)(=O)c1ccc(Nc2ncc3cc(C(F)F)nc(N4CCCC4)c3n2)c(C)c1` [I-42], the IC50 was less than 0.1 µM.
Turning to `CCS(=O)(=O)c1ccc(Nc2ncc(C(F)(F)F)c([C@H]3CC[C@](C)(O)CC3)n2)c(C)c1` [I-43], the IC50 was greater than 1 µM.
As for `CCS(=O)(=O)c1ccc(Nc2ncc(C(F)(F)F)c(-c3cn(C(C)C)c(C)n3)n2)c(C)c1` [I-44], the figure is less than 0.1 µM.
In the case of `CCS(=O)(=O)c1ccc(Nc2ncc(C(F)(F)F)c(-c3cnn(C)c3C(F)F)n2)c(C)c1` [I-45], the concentration for half-maximal inhibition (IC50) fell in the range of 0.5 to 1 µM.
As for `CCS(=O)(=O)c1ccc(Nc2ncc3cc(F)c(=O)n(C4CCCC4)c3n2)c(C)c1` [I-52], the figure is 0.1 to 0.5 µM; as for `CCS(=O)(=O)c1ccc(Nc2ncc3cc(C(F)(F)F)c(=O)n(C4CCCC4)c3n2)c(C)c1` [I-53], 0.5 to 1 µM.
`CNS(=O)(=O)c1ccc(Nc2ncc(C(F)(F)F)c([C@H]3CC[C@@](C)(O)CC3)n2)c(C)c1` [I-67]: the 50% inhibitory concentration (IC50) was less than 0.1 µM.
On to `CNS(=O)(=O)c1ccc(Nc2ncc(C(F)(F)F)c(C3CCCCC3)n2)c(C)c1` [I-68], for which the IC50 was greater than 1 µM.
Consider `Cc1cc(CS(C)(=O)=O)ccc1Nc1ncc2cc(Cl)c(=O)n(C(C)C)c2n1` [I-197], for which the IC50 was greater than 1 µM.
As for `Cc1cc(CS(C)(=N)=O)ccc1Nc1ncc2cc(Cl)c(=O)n(C(C)C)c2n1` (stereo not drawn) [I-207], the figure is 0.1 to 0.5 µM; as for `CCS(=N)(=O)c1ccc(Nc2ncc3cc(Cl)c(=O)n(C(C)C)c3n2)c(C)c1` (stereo not drawn) [I-208], 0.1 to 0.5 µM; as for `COCc1cc(-c2ccc(Nc3ncc4cc(Cl)c(=O)n(C(C)C)c4n3)c(C)c2)n(C)n1` [I-210], greater than 1 µM.
For the compound `CC(C)(O)c1cccc2cnc(NC3CCN(S(C)(=O)=O)CC3)cc12` [I-212], the 50% inhibitory concentration (IC50) fell in the range of 0.1 to 0.5 µM.
For `CNS(=O)(=O)c1cc(C)c(Nc2ncc3cc(Cl)c(=O)n(C(C)C)c3n2)cn1` [I-213], the half-inhibitory concentration (IC50) fell in the range of 0.1 to 0.5 µM.
With `CC(C)c1cccc2cnc(NC3CCN(S(C)(=O)=O)CC3)nc12` [I-215], the IC50 was less than 0.1 µM.
On to `CNS(=O)(=O)c1ccc(Nc2ncc3cc(Cl)c(=O)n(C(C)C)c3n2)c(C)n1` [I-218], for which the IC50 was 0.1 to 0.5 µM.
As to `CC(=O)N(c1ccc(-c2cnn(C)c2)cc1)[C@H]1CC[C@H](Nc2ncc3cc(Cl)c(=O)n(C(C)C)c3n2)CC1` [I-228], the IC50 was in the range of 0.1 to 0.5 µM.
With `CNS(=O)(=O)c1ccc(Nc2nc(OC3CCCCC3)c3ncsc3n2)c(C)c1` [I-234], the IC50 was greater than 1 µM.
As for `CC(=O)N1CCC(Nc2ncc3cc(Cl)c(=O)n(C(C)C)c3n2)CC1` [I-235], the figure is 0.5 to 1 µM; as for `COC1CC2(CCC(Nc3ncc4cc(Cl)c(=O)n(C5CCCC5)c4n3)CC2)C1` (stereo not drawn) [I-239], greater than 1 µM; as for `CNS(=O)(=O)c1ccc(Nc2ncc3cc(C(F)F)c(=O)n(C4CCCC4)c3n2)c(C)c1` [I-242], less than 0.1 µM.
As to `CNS(=O)(=O)c1ccc(Nc2ncc3cc(Cl)c(=O)n(C(C)C)c3n2)c(C)c1` [I-247], the IC50 was less than 0.1 µM.
As for `CNS(=O)(=O)c1ccc(Nc2ncc3ccc(=O)n(C4CCCC4)c3n2)c(C)c1` [I-252], the IC50 was less than 0.1 µM.
Turning to `Cn1cc(S(=O)(=O)N2CCC(Nc3ncc4c(n3)N([C@@H]3CCC[C@@]3(C)O)C(=O)C43CC3)CC2)cn1` [I-254], the IC50 was less than 0.1 µM.
In the case of `Cn1cc(S(=O)(=O)N2CCC(Nc3ncc4c(n3)N(C3CCCC3)C(=O)C43CC3)CC2)cn1` [I-255], the IC50 is less than 0.1 µM.
As for `CNS(=O)(=O)c1ccc(Nc2ncc3cc(C(F)F)c(=O)n([C@@H]4CCC[C@@]4(C)O)c3n2)c(C)c1` [I-256], the figure is less than 0.1 µM; as for `CNS(=O)(=O)c1ccc(Nc2ncc(C(F)(F)F)c(-c3cnc(C)n3C(C)C)n2)c(C)c1` [I-265], 0.1 to 0.5 µM; as for `CNS(=O)(=O)c1ccc(Nc2ncc(C(F)(F)F)c(-c3cn(C(C)C)c(C)n3)n2)c(C)c1` [I-266], less than 0.1 µM.
With `CNS(=O)(=O)c1ccc(Nc2ncc(C(F)(F)F)c(-c3cnn(C)c3C(F)F)n2)c(C)c1` [I-267], the IC50 was in the range of 0.1 to 0.5 µM.
Regarding `CNS(=O)(=O)c1ccc(Nc2nccc(-c3cnc(C)n3C(C)C)n2)c(C)c1` [I-269], the IC50 was less than 0.1 µM.
As for `CNS(=O)(=O)c1ccc(Nc2ncc(C(F)(F)F)c(C3CCOCC3)n2)c(C)c1` [I-271], the IC50 fell in the range of 0.5 to 1 µM.
Consider `Cc1cc(S(N)(=O)=O)ccc1Nc1ncc(C(F)(F)F)c(-c2cnn(C)c2)n1` [I-272], for which the IC50 is less than 0.1 µM.
